Test results reported in article PMC5635026, “Homo-PROTACs: bivalent small-molecule dimerizers of the VHL E3 ubiquitin ligase to induce self-degradation” (Nature Communications, 2017).
Like-named read-outs stand apart in the source and are kept apart here.

Tests used:
V19CB = biological target: T1, V19CB (Homo sapiens, UniProt P40337); assay: Size-exclusion chromatography (SEC) of complex formation with V19CB; format: binding; conditions: VCB 50 µM, compound 30 µM
T1 construct: made in house
Protocol: (§1) Protein expression and purification. Human proteins VHL (UniProt accession number: P40337), ElonginC (Q15369), and ElonginB (Q15370) were used for all protein expression. The short-isoform-containing VCB complex (V19CB) was expressed, purified and stored as described previously. For expression of the long-isoform-containing VCB complex (V30CB), N-terminally His6-tagged VHL (1–213), ElonginC (17–112) and ElonginB (1–104) were co-expressed in Escherichia coli BL21(DE3) at 20 °C for 18 h using 0.5 mM isopropyl β-D-1-thiogalactopyranoside (IPTG). E. coli cells were resuspended in binding buffer (50 mM HEPES, pH 8.0, 500 mM NaCl, 10 mM imidazole and 5 mM β-mercaptoethanol), lysed using a pressure cell homogenizer (Stansted Fluid Power), and lysate clarified by centrifugation. The supernatant was loaded onto a HisTrap FF affinity column (GE Healthcare) equilibrated with binding buffer, and bound protein was eluted using an imidazole gradient. The His6 tag was removed using thrombin protease (Sigma), and the untagged complex was dialyzed into binding buffer. V30CB was then loaded onto the HisTrap FF column a second time, allowing impurities to bind as the complex eluted without binding. The flow-through was dialyzed using a low-salt buffer (20 mM HEPES, pH 8.0, 25 mM NaCl and 1 mM DTT) and then loaded onto a Resource Q anion exchange column (GE Healthcare); bound protein was eluted across a linear NaCl gradient. V30CB was then additionally purified by size-exclusion chromatography using a Superdex-75 16/600 column (GE Healthcare) equilibrated with 20 mM HEPES, pH 7.5, 100 mM sodium chloride and 1 mM TCEP. All chromatography purification steps were performed using Äkta FPLC purification systems (GE Healthcare).
Size-exclusion chromatography (SEC). SEC experiments were carried out in a ÄKTA pure system (GE Healthcare) at room temperature. The oligomeric state of the VCB complex in solution was analyzed by gel filtration in a buffer containing 20 mM Bis-Tris (pH 7), 150 mM NaCl and 1 mM 1,4-dithiothreitol (DTT) using a Superdex 200 Increase 10/300 GL column (GE Healthcare) calibrated with globular proteins of known molecular weight (GE Healthcare, 28-4038-41/42). […] Sample volume for each injection was 200 µl, and the flow rate was 0.5 ml min^−1. Peak elution was monitored using ultraviolet absorbance at 280 nm.

pVHL19 [1] = biological target: T2, pVHL19 (Homo sapiens, UniProt P40337); assay: Isothermal titration calorimetry (ITC) against VCB complex with short VHL isoform (V19CB); format: binding; set-up: made in house; conditions: ITC
Protocol: as §1
(§2) Isothermal titration calorimetry (ITC). Titrations were performed on an ITC200 micro-calorimeter (GE Healthcare). […] The final DMSO concentration was 0.15% v/v. VCB protein experiments were carried out in a buffer containing 20 mM Bis-tris propane, 150 mM NaCl, 1 mM TCEP, 0.15% v/v DMSO, pH 7.4. The titrations consisted of 19 injections of 2 µL compounds solution (150 µM, in the syringe) at a rate of 0.5 µl s^−1 at 120 s time intervals into the VCB protein solution (20 µM, in the cell). An initial injection of compound solution (0.4 µL) was made and discarded during data analysis. All experiments were performed at 25 °C, whilst stirring the syringe at 600 rpm. The data were fitted to a single binding site model to obtain the stoichiometry n, the dissociation constant K d and the enthalpy of binding ΔH using the Microcal LLC ITC200 Origin software provided by the manufacturer.
Target sequence in this assay (P40337 54-213): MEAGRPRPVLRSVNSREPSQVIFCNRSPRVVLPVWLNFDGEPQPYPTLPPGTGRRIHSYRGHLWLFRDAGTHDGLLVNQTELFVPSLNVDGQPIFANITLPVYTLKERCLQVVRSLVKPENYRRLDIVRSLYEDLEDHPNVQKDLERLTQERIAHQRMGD
Target sequence in this assay (Q15369 17-112 partner limits assumed): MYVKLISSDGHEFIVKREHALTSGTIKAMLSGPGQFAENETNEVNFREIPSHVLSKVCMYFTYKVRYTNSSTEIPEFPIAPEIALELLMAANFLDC
Target sequence in this assay (Q15370 1-104 partner limits assumed): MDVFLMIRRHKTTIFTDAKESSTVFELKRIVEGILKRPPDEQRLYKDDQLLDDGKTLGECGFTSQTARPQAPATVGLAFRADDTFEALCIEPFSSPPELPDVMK

pVHL30 [2] = biological target: T3, pVHL30 (Homo sapiens, UniProt P40337); assay: Immunoblot of pVHL30 protein level in HeLa cells after compound treatment; format: cell-based; set-up: endogenous in cells; host or cells: HeLa; conditions: 10 h; for depletion of target protein (pVHL30 / VHL) / remaining activity at 1 µM: 1 µM; for remaining activity at 1 µM: DMSO = 100, Fig. 4a; for remaining activity at 1 µM / remaining pVHL30 protein level at 1 µM: read-out: pVHL30 band quantification normalized to 0.1% DMSO
Protocol: (§3) Cell culture. Human cell lines HeLa, U2OS and HEK 293, purchased from ATCC, were propagated in DMEM supplemented with 10% fetal bovine serum (FBS), L- glutamine, 100 μg ml^−1 of penicillin/streptomycin at 37 °C and 5% CO2. Cells were maintained for no more than 30 passages. All cell lines were routinely tested for mycoplasma contamination using MycoAlert kit from Lonza. For compound treatment experiments, cells were transferred in six-well plates with either 3 × 10^5 or 5 × 10^5 cells per well in 2 ml of media. At 80% confluence, cells were treated with compounds at the desired concentration, reaching final DMSO concentration of 0.1% v/v. Cells were incubated at 37 °C and 5% CO2 for the desired time before harvesting.
(§4) Immunoblotting. Cells were lysed in lysis buffer (20 mM Tris pH 8, 150 mM NaCl, 1% Triton × 100) and a protease inhibitor cocktail (Roche) per 10 ml buffer. For protein extracts, the dishes were placed on ice. The media was aspirated and the tissue layer washed twice with ice-cold phosphate buffer saline (PBS). Lysis buffer (120 μl) was added and the cells detached from the surface with a cell scraper. After removal of the insoluble fraction by centrifugation, the protein concentration of the supernatant was determined by Pierce™ Coomassie (Bradford) Protein Assay Kit. Protein extracts were fractionated by SDS-PAGE on 4–12% Tris-Acetate NuPage® Novex® (Life Technologies) polyacrylamide gels and transferred to a nitrocellulose membrane using wet transfer. The membrane was then blocked with 5 % w/v Bovine serum albumin (BSA) in Tris-buffered saline (TBS) with 0.1% w/v Tween-20. For detecting proteins the following primary antibodies in the given concentrations were used: anti-β-Actin (Cell Signaling Technology, 4970S, 13E5) 1:2000, anti-VHL (Cell Signaling Technology, #68547) 1:1000, anti-Hif-1α (BD Biosciences, 610959, clone 54) 1:1,000, anti-hydroxy-HIF-1α (Hyp564) (Cell Signaling Techonology; #3434) 1:1,000, anti-PHD2 (Bethyl Laboratories; A300-322A) 1:1,000, anti-PHD3 (Bethyl Laboratories; A300-327A) 1:1000, anti-CRBN (Proteintech; 11435-1-AP) 1:1,000. Following incubation with a horseradish peroxidase-conjugated secondary antibody (Cell Signaling Technology), the signal was developed using enhanced chemiluminescence (ECL) Western Blotting Detection Kit (Amersham) on Amersham Hyperfilm ECL film (Amersham). Band quantification was performed using ImageJ software and reported as relative amount as ratio of the each protein band relative to the lane’s loading control. The values obtained were then normalized to 0.1% DMSO vehicle control. See Supplementary Fig. 12 for full-scanned images of western-blots shown in the main text figures.
Target sequence in this assay (P40337 whole entry): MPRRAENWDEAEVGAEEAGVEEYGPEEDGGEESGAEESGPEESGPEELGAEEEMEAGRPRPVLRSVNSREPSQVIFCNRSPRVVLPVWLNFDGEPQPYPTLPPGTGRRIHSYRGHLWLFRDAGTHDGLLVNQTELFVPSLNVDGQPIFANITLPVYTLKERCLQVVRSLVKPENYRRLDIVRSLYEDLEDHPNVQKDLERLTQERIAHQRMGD

pVHL19 [3] = biological target: T2, pVHL19; assay: Immunoblot of pVHL19 protein level in HeLa cells after compound treatment; format: cell-based; set-up: endogenous in cells; host or cells: HeLa; conditions: 10 h, read-out: pVHL19 band quantification normalized to 0.1% DMSO
Protocol: as §3, §4
Target sequence in this assay (P40337 54-213): as the sequence (P40337 54-213) above
Target sequence in this assay (Q15369 whole entry partner, canonical isoform): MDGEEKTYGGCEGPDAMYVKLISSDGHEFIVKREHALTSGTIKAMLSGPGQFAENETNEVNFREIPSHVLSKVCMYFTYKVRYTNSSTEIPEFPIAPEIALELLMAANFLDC
Target sequence in this assay (Q15370 whole entry partner, canonical isoform): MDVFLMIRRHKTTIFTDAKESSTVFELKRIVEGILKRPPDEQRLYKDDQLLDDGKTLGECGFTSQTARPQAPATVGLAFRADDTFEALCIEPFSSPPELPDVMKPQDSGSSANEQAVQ

pVHL30 [4] = biological target: T3, pVHL30; assay: Isothermal titration calorimetry (ITC) against VCB complex with long VHL isoform (V30CB); format: binding; set-up: N-terminally His6-tagged VHL (1–213), ElonginC (17–112) and ElonginB (1–104) were co-expressed; His6 (N, cleaved yes); made in house; host or cells: Escherichia coli BL21(DE3); conditions: 25 °C
Protocol: as §1, §2
Target sequence in this assay (P40337 whole entry): as the sequence (P40337 whole entry) above
Target sequence in this assay (Q15369 17-112 partner limits assumed): as the sequence (Q15369 17-112 partner limits assumed) above
Target sequence in this assay (Q15370 1-104 partner limits assumed): as the sequence (Q15370 1-104 partner limits assumed) above

T1 sequence (P40337 54-213): as the sequence (P40337 54-213) above
T1 sequence (Q15369 17-112 partner limits assumed): as the sequence (Q15369 17-112 partner limits assumed) above
T1 sequence (Q15370 1-104 partner limits assumed): as the sequence (Q15370 1-104 partner limits assumed) above

In the case of `Cc1ncsc1-c1ccc(CNC(=O)[C@@H]2C[C@H](O)CN2C(=O)[C@@H](NC(=O)COCCOCCOCCOCCOCCOCC(=O)N[C@H](C(=O)N2C[C@@H](O)C[C@H]2C(=O)NCc2ccc(-c3scnc3C)cc2)C(C)(C)C)C(C)(C)C)cc1` [CMP98, N ^1 ,N ^20-bis((S)-1-((2S,4S)-4-hydroxy-2-((4-(4-methylthiazol-5-yl)benzyl)carbamoyl)pyrrolidin-1-yl)-3,3-dimethyl-1-oxobutan-2-yl)-3,6,9,12,15,18-hexaoxaicosanediamide], the “shift of VCB peak / ternary complex formation in SEC” value (V19CB) is reported as “No shift”, the “binding to VCB by ITC” value (pVHL19 [1]; qualitative) is reported as “binding was not detected” and the “depletion of target protein (pVHL30 / VHL)” value (pVHL30 [2]) is reported as “unable to induce degradation of VHL”. The remaining activity at 1 µM (pVHL30 [2]) was 108% and the remaining activity at 1 µM (pVHL19 [3]; 1 µM, DMSO = 100, Fig. 4a) was 104%.

Work on `Cc1ncsc1-c1ccc(CNC(=O)[C@@H]2C[C@@H](O)CN2C(=O)[C@@H](NC(=O)COCCOCCOCCOCCOCCOc2cc(-c3scnc3C)ccc2CNC(=O)[C@@H]2C[C@@H](O)CN2C(=O)[C@@H](NC(=O)C2(C#N)CC2)C(C)(C)C)C(C)(C)C)cc1` [CMP113] yielded a remaining pVHL30 protein level at 1 µM (pVHL30 [2]) of 121% and a remaining activity at 1 µM (pVHL19 [3]) of 111%.

In the case of `Cc1ncsc1-c1ccc(CNC(=O)[C@H]2C[C@@H](O)CN2C(=O)[C@H](NC(=O)COCCOCCOCCOCCOCC(=O)N[C@H](C(=O)N2C[C@H](O)C[C@H]2C(=O)NCc2ccc(-c3scnc3C)cc2)C(C)(C)C)C(C)(C)C)cc1` [CMP99, N ^1-((R)-1-((2R,4R)-4-hydroxy-2-((4-(4-methylthiazol-5-yl)benzyl)carbamoyl)pyrrolidin-1-yl)-3,3-dimethyl-1-oxobutan-2-yl)-N ^17-((S)-1-((2S,4R)-4-hydroxy-2-((4-(4-methylthiazol-5-yl)benzyl)carbamoyl)pyrrolidin-1-yl)-3,3-dimethyl-1-oxobutan-2-yl)-3,6,9,12,15-pentaoxaheptadecanediamide], the “elution volume of small peak in SEC” value (V19CB) is reported as 13.5 mL, the “shift of VCB peak / ternary complex formation in SEC” value (V19CB) is reported as “No shift” and the ΔG (pVHL19 [1]; 25 °C, pVHL19) is reported as “–9.33 ± 0.06 kcal mol^−1”. The ΔH (pVHL19 [1]; 25 °C, pVHL19) was “–6.23 ± 0.05 kcal mol^−1”, the “−TΔS” value (pVHL19 [1]; 25 °C, pVHL19) was “–3.1 ± 0.7 kcal mol^−1” and the Kd (pVHL19 [1]; 25 °C, pVHL19 (V19CB)) was 146 ± 2 nM. For the same compound, the n (pVHL19 [1]; 25 °C, stoichiometry of binding, pVHL19 (V19CB)) was 0.964 ± 0.005, the “depletion of target protein (pVHL30 / VHL)” value (pVHL30 [2]) was “unable to induce degradation of VHL” and the remaining activity at 1 µM (pVHL30 [2]) was 62%. The remaining activity at 1 µM (pVHL19 [3]; 1 µM, DMSO = 100, Fig. 4a) was 104%, the ΔG (pVHL30 [4]; pVHL30) was “–9.51 ± 0.05 kcal mol^−1” and the ΔH (pVHL30 [4]; pVHL30) was “–5.19 ± 0.03 kcal mol^−1”. The “−TΔS” value (pVHL30 [4]; pVHL30) was “–4.3 ± 0.1 kcal mol^−1”, the Kd (pVHL30 [4]; pVHL30 (V30CB)) was 106 ± 10 nM and the n (pVHL30 [4]; stoichiometry of binding, pVHL30 (V30CB)) was 1.050 ± 0.004.

Work on `CC(=O)N[C@H](C(=O)N1C[C@H](O)C[C@H]1C(=O)NCc1ccc(-c2scnc2C)cc1OCCOCCOCCOCCOCCOCC(=O)N[C@H](C(=O)N1C[C@H](O)C[C@H]1C(=O)NCc1ccc(-c2scnc2C)cc1)C(C)(C)C)C(C)(C)C` [CMP112] yielded a remaining activity at 1 µM (pVHL30 [2]) of 110% and a remaining activity at 1 µM (pVHL19 [3]; 1 µM, DMSO = 100, Fig. 4a) of 89%.

Work on `CC(=O)N[C@H](C(=O)N1C[C@H](O)C[C@H]1C(=O)NCc1ccc(-c2scnc2C)cc1OCCOCCOCCOCCOCCOc1cc(-c2scnc2C)ccc1CNC(=O)[C@@H]1C[C@@H](O)CN1C(=O)[C@@H](NC(C)=O)C(C)(C)C)C(C)(C)C` [CMP106] yielded a remaining pVHL30 protein level at 1 µM (pVHL30 [2]) of 114% and a remaining activity at 1 µM (pVHL19 [3]) of 93%.

`Cc1ncsc1-c1ccc(CNC(=O)[C@@H]2C[C@@H](O)CN2C(=O)[C@@H](NC(=O)C2(C#N)CC2)C(C)(C)C)c(OCCOCCOCCOCCOCCOc2cc(-c3scnc3C)ccc2CNC(=O)[C@@H]2C[C@@H](O)CN2C(=O)[C@@H](NC(=O)C2(C#N)CC2)C(C)(C)C)c1` [CMP108] showed a remaining activity at 1 µM (pVHL30 [2]) of 126% and a remaining activity at 1 µM (pVHL19 [3]; 1 µM, DMSO = 100, Fig. 4a) of 97%.
